{"source": "patent US20150079105A1", "about": "“TREATMENT OF ACUTE INFLAMMATION IN THE RESPIRATORY TRACT” (UCL Business PLC, priority 2012, published 2015)", "tested_on": "151 inflammatory mediators", "assay": "Low density array (LDA) of 151 inflammatory mediators, lung mRNA of LPS challenged mice", "type": "in vivo", "settings": "5 mg/kg i.p. 30 min after LPS, 3 h", "procedure": "FIG. 7. […] Lungs were removed, snap frozen and homogenised under liquid nitrogen before RNA was isolated and run on a low density gene array consisting of 151 inflammatory markers (A). […] Of these genes the pro-inflammatory cytokines TNF and IL-6, and the neutrophil chemoattractants CXCL1 and CXCL2, in addition to the chemokines CCL2 and CCL7 are further depicted (D). Data were analysed by one way ANOVA with Newman-Keuls Post Hoc test:, **p<0.01, *p<0.05.\nIn order to identify potential PAR1-regulated cytokine/chemokine candidates involved in LPS-induced ALI, a low density array (LDA) designed to profile 151 inflammatory mediators was used (FIG. 7a, FIG. 9). Total RNA was extracted from pulverised frozen pulverised lung using TRIzol (see manufacture's protocol (Invitrogen)), DNase treated using a DNA free kit (Ambion) and cDNA synthesised from 1 μg RNA/per sample using a Superscript kit (Invitrogen). Expression levels of known inflammatory mediators were analysed in cDNA using Taqman low density array qPCR chips and normalized to 18 s. Transcript data was analysed using the Gene Expression Similarity Suite (Genesis) software^51 and data represented as a heat map following log2 transformation and normalisation. Relative fold-difference in expression was calculated using the ΔΔT method with the saline treated group as the calibrator reference. […] The differential gene expression profile included the upregulation of several genes known to be important for the generation of inflammatory responses, such as TNF, interleukins, CXC chemokines and CC chemokines, including CCL2, CCL3, CCL4, CCL7, CCL22, CXCL1, CXCL2, CXCL10, CXCL13 and CX3CL1.", "data": [{"smiles": "NCC[C@H](NC(=O)[C@H](Cc1ccc(F)c(F)c1)NC(=O)Nc1ccc2c(CN3CCCC3)nn(Cc3c(Cl)cccc3Cl)c2c1)C(=O)NCc1ccccc1", "note": "[RWJ-58259]", "values": [{"measurement": "CCL2 (MCP-1) mRNA expression in lung", "result": "decreased"}, {"measurement": "CCL7 (MCP-3) mRNA expression in lung", "result": "decreased"}, {"measurement": "CXCL1 mRNA expression in lung", "result": "unaffected"}, {"measurement": "CXCL2 mRNA expression in lung", "result": "unaffected"}, {"measurement": "IL-6 mRNA expression in lung", "result": "unaffected"}, {"measurement": "TNF mRNA expression in lung", "result": "unaffected"}, {"measurement": "number of genes (markers) with decreased expression following PAR1 antagonism", "setting": "array of 151 markers", "result": 25, "unit": "genes"}]}]}
